Reference: PubChem BioAssay AID330 (DTP/NCI, 2004)
Values joined by “and” are separate entries in the source; they are usually repeats but may differ in a detail not shown here. Identical values can stand only once. Toxic doses and inconclusive results are not listed. The calls were made as follows: active = survival T/C of 150% or more; inactive = T/C below 125% in these data. Numbered stars: 1 amine (or outer) side, 2 acyl side, 3 side chain; on linkers, the order of the positions; unused ones are H or OH. Bridge positions count the residues as written; N and C are the ends. Square brackets hold non-standard residues; d marks the D form. Peptide text beside a SMILES is read from it. * marks the point of attachment. X2 = CC(C)C(C)C(C(=O)[*:2])N(C)[*:1]; Picolinoyl(3-OH) = O=C(c1ncccc1O)*; NMePhg = CN[CH](C(=O)O)c1ccccc1; Hyp = O=C(O)[CH]1C[CH](O)CN1; Sar = CNCC(=O)O

System: P388 leukemia ip, CD2F1 mice, survival T/C
Assay: NCI In Vivo Anticancer Drug Screen. Data for tumor model P388 Leukemia (intraperitoneal) in CD2F1 (CDF1) mice
Conditions: endpoint: median survival time, higher = longer survival
In short: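 Mice carrying the transplanted tumor received test compound or vehicle. Survival was recorded in each group, and the value is the treated-group measurement divided by that of the vehicle-treated control group.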

[1] = dose: 50.0 mg/kg/injection, schedule: Q01DX009 (ip), vehicle: saline with Tween-80
[2] = dose: 100.0 mg/kg/injection, schedule: Q01DX009 (ip), vehicle: saline with Tween-80
[3] = dose: 25.0 mg/kg/injection, schedule: Q01DX009 (ip), vehicle: Klucel (hydroxypropylcellulose) (HPC)
[4] = dose: 50.0 mg/kg/injection, schedule: Q01DX009 (ip), vehicle: Klucel (hydroxypropylcellulose) (HPC)
[5] = dose: 100.0 mg/kg/injection, schedule: Q01DX009 (ip), vehicle: Klucel (hydroxypropylcellulose) (HPC)
[6] = dose: 200.0 mg/kg/injection, schedule: Q01DX009 (ip), vehicle: Klucel (hydroxypropylcellulose) (HPC)
[7] = dose: 60.0 mg/kg/injection, schedule: Q01DX005 (ip), vehicle: Klucel (hydroxypropylcellulose) (HPC)
[8] = dose: 120.0 mg/kg/injection, schedule: Q01DX005 (ip), vehicle: Klucel (hydroxypropylcellulose) (HPC)
[9] = dose: 240.0 mg/kg/injection, schedule: Q01DX005 (ip), vehicle: Klucel (hydroxypropylcellulose) (HPC)
[10] = dose: 100.0 mg/kg/injection, schedule: Q01DX001 (ip), vehicle: saline with Tween-80
[11] = dose: 200.0 mg/kg/injection, schedule: Q01DX001 (ip), vehicle: saline with Tween-80

Measured: T/C

COC(=O)C/C(C(=O)OC)=C1\CCC2=C1N1CCCC1C2(CC(=O)OC)C(=O)OC (configuration not stated)
inactive: dose: 12.5 mg/kg/injection, schedule: Q01DX001 (ip), vehicle: Klucel (hydroxypropylcellulose) (HPC) 100 % of control | dose: 25.0 mg/kg/injection, schedule: Q01DX001 (ip), vehicle: Klucel (hydroxypropylcellulose) (HPC) 99 % of control | dose: 50.0 mg/kg/injection, schedule: Q01DX001 (ip), vehicle: Klucel (hydroxypropylcellulose) (HPC) 99 % of control

CSC1(CC(=O)N(C)C)C(=O)N(C)c2ccccc21 (configuration not stated)
inactive: dose: 25.0 mg/kg/injection, schedule: Q01DX009 (ip), vehicle: saline with Tween-80 100 % of control | [1] 94 % of control | [2] 115 % of control

CC1CCCN(C(=O)Nc2ccc([N+](=O)[O-])cc2)C1 (configuration not stated)
inactive: [1] 99 % of control | [2] 94 % of control | dose: 200.0 mg/kg/injection, schedule: Q01DX009 (ip), vehicle: saline with Tween-80 92 % of control

CC(C)CC1NC(=O)C(NC(=O)c2ncccc2O)C(C)OC(=O)C(c2ccccc2)N(C)C(=O)C(C)NC(=O)C(C(C)C(C)C)N(C)C(=O)CN(C)C(=O)C2CC(O)CN2C1=O (configuration not stated) ({Picolinoyl(3-OH)}-TL[Hyp][Sar][X2]A[NMePhg]; ester 1-C; configuration not given here)
inactive: dose: 12.5 mg/kg/injection, schedule: Q01DX009 (ip), vehicle: Klucel (hydroxypropylcellulose) (HPC) 95 % of control | [3] 94 % of control | [4] 93 % of control | [5] 95 % of control and 97 % of control | [6] 98 % of control and 119 % of control

C/C(=N\NC(=S)N(C)C)c1ccccn1
inactive: dose: 6.25 mg/kg/injection, schedule: Q01DX009 (ip), vehicle: saline with Tween-80 100 % of control

O[B]c1nc2ccccc2c2ccccc12
inactive: [7] 105 % of control | [8] 102 % of control | [9] 119 % of control

CC1=C2C(=CC(C)(C)[C@@H]2O)C(=O)[C@](C)(O)C12CC2
inactive: dose: 0.26 mg/kg/injection, schedule: Q01DX010 (ip), vehicle: saline 110 % of control | dose: 0.4 mg/kg/injection, schedule: Q01DX010 (ip), vehicle: saline 110 % of control | dose: 0.6 mg/kg/injection, schedule: Q01DX010 (ip), vehicle: saline 115 % of control | dose: 45.0 micrograms/kg/injection, schedule: Q01DX010 (ip), vehicle: saline 100 % of control | dose: 90.0 micrograms/kg/injection, schedule: Q01DX010 (ip), vehicle: saline 104 % of control | dose: 180.0 micrograms/kg/injection, schedule: Q01DX010 (ip), vehicle: saline 113 % of control

COC(=O)C1=C/CCCN(C=O)/C=C\1C(=O)OC
inactive: dose: 100.0 mg/kg/injection, schedule: Q04DX003 (ip), vehicle: alcohol 103 % of control | dose: 200.0 mg/kg/injection, schedule: Q04DX003 (ip), vehicle: alcohol 103 % of control | dose: 400.0 mg/kg/injection, schedule: Q04DX003 (ip), vehicle: alcohol 103 % of control

Cn1c2cc([N+](=O)[O-])ccc2c(=O)c2c(O)cc3c(c21)C=CC(C)(C)O3
inactive: [10] 100 % of control | [11] 103 % of control

COC1CC(C)(OC(C)=O)Cc2cc3c(c(OC(C)=O)c21)C(=O)c1c(OC(C)=O)cc2c(c1C3=O)OC1OC2(C)C(OC(C)=O)C(N(C)C)C1OC(C)=O (configuration not stated)
inactive: dose: 1.25 mg/kg/injection, schedule: Q01DX009 (ip), vehicle: other 102 % of control | dose: 2.5 mg/kg/injection, schedule: Q01DX009 (ip), vehicle: other 112 % of control and 106 % of control | dose: 5.0 mg/kg/injection, schedule: Q01DX009 (ip), vehicle: other 105 % of control and 101 % of control | dose: 10.0 mg/kg/injection, schedule: Q01DX009 (ip), vehicle: other 114 % of control and 115 % of control | dose: 20.0 mg/kg/injection, schedule: Q01DX009 (ip), vehicle: other 121 % of control

Cc1coc2c1C(=O)C(=O)c1c-2ccc2c1CCCC2(C)CO (configuration not stated) (tested in a mixture with another compound)
inactive: [2] 95 % of control | dose: 400.0 mg/kg/injection, schedule: Q01DX009 (ip), vehicle: saline with Tween-80 90 % of control

Cc1ccc(CNc2ccccc2)cc1
inactive: dose: 100.0 mg/kg/injection, schedule: Q01DX009 (ip), vehicle: other 100 % of control | dose: 200.0 mg/kg/injection, schedule: Q01DX009 (ip), vehicle: other 100 % of control | dose: 400.0 mg/kg/injection, schedule: Q01DX009 (ip), vehicle: other 100 % of control

COc1cc2c(cc1O)CC1c3c(cc(OC)c(O)c3C2)CCN1C (configuration not stated)
inactive: dose: 12.5 mg/kg/injection, schedule: Q01DX001 (ip), vehicle: saline with Tween-80 100 % of control | dose: 25.0 mg/kg/injection, schedule: Q01DX001 (ip), vehicle: saline with Tween-80 96 % of control | dose: 50.0 mg/kg/injection, schedule: Q01DX001 (ip), vehicle: saline with Tween-80 97 % of control | [10] 95 % of control

CNc1ccc2c(cc1=O)C(NC(C)=O)CCc1cc(OC)c(OC)c(OC)c1-2 (configuration not stated)
active: dose: 0.08 mg/kg/injection, schedule: Q01DX009 (ip), vehicle: Klucel (hydroxypropylcellulose) (HPC) 157 % of control | dose: 0.12 mg/kg/injection, schedule: Q01DX009 (ip), vehicle: Klucel (hydroxypropylcellulose) (HPC) 157 % of control | dose: 0.16 mg/kg/injection, schedule: Q01DX009 (ip), vehicle: Klucel (hydroxypropylcellulose) (HPC) 174 % of control | dose: 0.25 mg/kg/injection, schedule: Q01DX009 (ip), vehicle: Klucel (hydroxypropylcellulose) (HPC) 150 % of control | dose: 0.32 mg/kg/injection, schedule: Q01DX009 (ip), vehicle: Klucel (hydroxypropylcellulose) (HPC) 166 % of control

CCCCCCC(=O)/C=C/c1ccc(OC(=O)c2ccc(Cl)cc2)cc1
inactive: dose: 6.25 mg/kg/injection, schedule: Q01DX009 (ip), vehicle: saline 97 % of control | dose: 12.5 mg/kg/injection, schedule: Q01DX009 (ip), vehicle: saline 94 % of control | dose: 25.0 mg/kg/injection, schedule: Q01DX009 (ip), vehicle: saline 94 % of control | dose: 100.0 mg/kg/injection, schedule: Q01DX009 (ip), vehicle: saline 92 % of control | dose: 200.0 mg/kg/injection, schedule: Q01DX009 (ip), vehicle: saline 92 % of control

CCOC(=O)c1nnn(-c2cncc(-n3nnc(C(=O)OCC)c3C(=O)OCC)n2)c1C(=O)OCC
inactive: [7] 98 % of control | [8] 102 % of control | [9] 103 % of control

COC(=O)c1cc(-c2ccc(O)c(OC)c2)n2c(NC(=O)Nc3ccc(Cl)cc3)nnc2n1
inactive: dose: 60.0 mg/kg/injection, schedule: Q01DX005 (ip), vehicle: saline with Tween-80 91 % of control | dose: 120.0 mg/kg/injection, schedule: Q01DX005 (ip), vehicle: saline with Tween-80 91 % of control | dose: 240.0 mg/kg/injection, schedule: Q01DX005 (ip), vehicle: saline with Tween-80 91 % of control

CC(=O)C(CCCn1c(=O)c2c(ncn2C)n(C)c1=O)C(C)=O
inactive: dose: 25.0 mg/kg/injection, schedule: Q01DX005 (ip), vehicle: Klucel (hydroxypropylcellulose) (HPC) 102 % of control | dose: 50.0 mg/kg/injection, schedule: Q01DX005 (ip), vehicle: Klucel (hydroxypropylcellulose) (HPC) 105 % of control | dose: 100.0 mg/kg/injection, schedule: Q01DX005 (ip), vehicle: Klucel (hydroxypropylcellulose) (HPC) 98 % of control

C=Cc1c(C)c(O)cc2c1-c1ccc(O)c(C)c1CC2
inactive: [3] 104 % of control | [4] 100 % of control | [5] 92 % of control | [6] 93 % of control

CCOC(=O)c1c(Cl)c(-c2ccccc2)c(=O)n2c1[nH]c1ccccc12
inactive: [10] 100 % of control | [11] 101 % of control | dose: 400.0 mg/kg/injection, schedule: Q01DX001 (ip), vehicle: saline with Tween-80 102 % of control

CSC(=S)Nc1nc2ccc(C)cc2s1
inactive: dose: 100.0 mg/kg/injection, schedule: Q04DX003 (ip), vehicle: Klucel (hydroxypropylcellulose) (HPC) 95 % of control | dose: 200.0 mg/kg/injection, schedule: Q04DX003 (ip), vehicle: Klucel (hydroxypropylcellulose) (HPC) 88 % of control | dose: 400.0 mg/kg/injection, schedule: Q04DX003 (ip), vehicle: Klucel (hydroxypropylcellulose) (HPC) 92 % of control
